Experimental data published in patent publication US6737383B1, “Herbicidal oxadiazolidines” (priority 1999, dated 2004).

Key:
bedstraw = experiment: Test B pre/postemergence bedstraw; format: in vivo, Galium aparine
Method in brief: (§1)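 Test chemicals in a non-phytotoxic solvent mixture with surfactant were sprayed preemergence onto planted seeds and postemergence onto plants 2 to 18 cm tall (1- to 4-leaf stage). After twelve to sixteen days in a greenhouse, injury was visually rated against untreated controls from 0 (no effect) to 10 (complete control).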

blackgrass = experiment: Test B pre/postemergence blackgrass; format: in vivo, Alopecurus myosuroides
Method in brief: as §1

surinam grass = experiment: Test B pre/postemergence surinam grass; format: in vivo, Brachiaria decumbens
Method in brief: as §1

cocklebur = experiment: Test B pre/postemergence cocklebur; format: in vivo, Xanthium strumarium
Method in brief: as §1

corn = experiment: Test B pre/postemergence corn; format: in vivo, Zea mays
Method in brief: as §1

morningglory = experiment: Test B pre/postemergence morningglory; format: in vivo, Ipomoea hederacea
Method in brief: as §1

pigweed = experiment: Test B pre/postemergence pigweed; format: in vivo, Amaranthus retroflexus
Method in brief: as §1

rape = experiment: Test B pre/postemergence rape; format: in vivo, Brassica napus
Method in brief: as §1

soybean = experiment: Test B pre/postemergence soybean; format: in vivo, Glycine max
Method in brief: as §1

sugar beet = experiment: Test B pre/postemergence sugar beet; format: in vivo, Beta vulgaris
Method in brief: as §1

velvetleaf = experiment: Test B pre/postemergence velvetleaf; format: in vivo, Abutilon theophrasti
Method in brief: as §1

wild oat = experiment: Test B pre/postemergence wild oat; format: in vivo, Avena fatua
Method in brief: as §1

purple nutsedge = experiment: Test B pre/postemergence purple nutsedge; format: in vivo, Cyperus rotundus
Method in brief: as §1

rice = experiment: Test B flood test rice; format: in vivo, Oryza sativa
Method in brief: (§2)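 Read-out is a visual response score from 0 (no effect) to 10 (complete control), assigned by comparison with untreated controls. Treatment was applied at the 2-leaf stage, and plants stayed in the greenhouse for twelve to sixteen days before scoring.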

smallflower flatsedge = experiment: Test B flood test smallflower flatsedge; format: in vivo, Cyperus difformis
Method in brief: as §2

bamyardgrass = experiment: Test B flood test barnyardgrass; format: in vivo, Echinochloa crus-galli
Method in brief: as §2

[1] = Postemergence, Rate 62 g/ha, scale 0 to 10, 0 is no effect, 10 is complete control
[2] = Postemergence, Rate 250 g/ha, scale 0 to 10, 0 no effect, 10 complete control
[3] = Preemergence, Rate 62 g/ha, scale 0 to 10, 0 is no effect, 10 is complete control
[4] = Preemergence, Rate 125 g/ha, scale 0 to 10 (0 no effect, 10 complete control)
[5] = Preemergence, Rate 250 g/ha, scale of 0 to 10 where 0 is no effect and 10 is complete control
[6] = Preemergence, Rate 500 g/ha, scale 0 (no effect) to 10 (complete control)
[7] = Rate 125 g/ha, Postemergence, scale 0 to 10, 0 no effect, 10 complete control
[8] = Rate 500 g/ha, Postemergence, scale 0 to 10, 0 no effect, 10 complete control
[9] = Rate 125 g/ha, Postemergence section (flood test species), scale 0 to 10, 0 no effect, 10 complete control
[10] = Rate 500 g/ha, listed under Postemergence (flood test species), scale 0 to 10, 0 no effect, 10 complete control
[11] = flood test, listed under Postemergence, Rate 250 g/ha, scale 0 to 10, 0 no effect, 10 complete control

Cc1ccccc1-n1c(=O)on(C(=O)N(c2ccc(C#N)cc2)C(C)C)c1=O [Compound 51]
1: Morningglory plant response rating (morningglory; [8]) | Soybean plant response rating (soybean; [8])
0: Bedstraw plant response rating (bedstraw; [1]) | Bedstraw plant response rating (bedstraw; [2]) | Plant response rating, Bedstraw (bedstraw; [3]) | Plant response rating, Bedstraw (bedstraw; [4]) | Plant response rating, Bedstraw (bedstraw; [5]) | Bedstraw plant response rating (bedstraw; [6]) | Bedstraw plant response rating (bedstraw; [7]) | Blackgrass plant response rating (blackgrass; [1]) | Blackgrass plant response rating (blackgrass; [2]) | Plant response rating, Blackgrass (blackgrass; [3]) | Plant response rating, Blackgrass (blackgrass; [4]) | Plant response rating, Blackgrass (blackgrass; [5]) | Blackgrass plant response rating (blackgrass; [6]) | Blackgrass plant response rating (blackgrass; [7]) | Blackgrass plant response rating (blackgrass; [8]) | B. signalgrass plant response rating (surinam grass; [1]) | B. signalgrass plant response rating (surinam grass; [2]) | Plant response rating, B. signalgrass (surinam grass; [3]) | Plant response rating, B. signalgrass (surinam grass; [4]) | Plant response rating, B. signalgrass (surinam grass; [5]) | B. signalgrass plant response rating (surinam grass; [6]) | B. signalgrass plant response rating (surinam grass; [7]) | B. signalgrass plant response rating (surinam grass; Rate 500 g/ha, Postemergence, scale of 0 to 10 where 0 is no effect and 10 is complete control) | Cocklebur plant response rating (cocklebur; [1]) | Cocklebur plant response rating (cocklebur; [2]) | Plant response rating, Cocklebur (cocklebur; [3]) | Plant response rating, Cocklebur (cocklebur; [4]) | Plant response rating, Cocklebur (cocklebur; [5]) | Cocklebur plant response rating (cocklebur; [6]) | Cocklebur plant response rating (cocklebur; [7]) | Cocklebur plant response rating (cocklebur; [8]) | Corn plant response rating (corn; [1]) | Corn plant response rating (corn; [2]) | Plant response rating, Corn (corn; [3]) | Plant response rating, Corn (corn; [4]) | Plant response rating, Corn (corn; [5]) | Corn plant response rating (corn; [6]) | Corn plant response rating (corn; [7]) | Corn plant response rating (corn; [8]) | Morningglory plant response rating (morningglory; [1]) | Morningglory plant response rating (morningglory; [2]) | Plant response rating, Morningglory (morningglory; [3]) | Plant response rating, Morningglory (morningglory; [4]) | Plant response rating, Morningglory (morningglory; [5]) | Morningglory plant response rating (morningglory; [6]) | Morningglory plant response rating (morningglory; [7]) | Redroot pigweed plant response rating (pigweed; [1]) | Redroot pigweed plant response rating (pigweed; [2]) | Plant response rating, Redroot pigweed (pigweed; [3]) | Plant response rating, Redroot pigweed (pigweed; [4]) | Plant response rating, Redroot pigweed (pigweed; [5]) | Redroot pigweed plant response rating (pigweed; [6]) | Redroot pigweed plant response rating (pigweed; [7]) | Redroot pigweed plant response rating (pigweed; [8]) | Rape plant response rating (rape; [1]) | Rape plant response rating (rape; [2]) | Plant response rating, Rape (rape; [3]) | Plant response rating, Rape (rape; [4]) | Plant response rating, Rape (rape; [5]) | Rape plant response rating (rape; [6]) | Rape plant response rating (rape; [7]) | Rape plant response rating (rape; [8]) | Soybean plant response rating (soybean; [1]) | Soybean plant response rating (soybean; [2]) | Plant response rating, Soybean (soybean; [3]) | Plant response rating, Soybean (soybean; [4]) | Plant response rating, Soybean (soybean; [5]) | Soybean plant response rating (soybean; [6]) | Soybean plant response rating (soybean; [7]) | Sugarbeets plant response rating (sugar beet; [1]) | Sugarbeets plant response rating (sugar beet; [2]) | Plant response rating, Sugarbeets (sugar beet; [3]) | Plant response rating, Sugarbeets (sugar beet; [4]) | Plant response rating, Sugarbeets (sugar beet; [5]) | Sugarbeets plant response rating (sugar beet; [6]) | Sugarbeets plant response rating (sugar beet; [7]) | Sugarbeets plant response rating (sugar beet; [8]) | Velvetleaf plant response rating (velvetleaf; [1]) | Velvetleaf plant response rating (velvetleaf; [2]) | Plant response rating, Velvetleaf (velvetleaf; [3]) | Plant response rating, Velvetleaf (velvetleaf; [4]) | Plant response rating, Velvetleaf (velvetleaf; [5]) | Velvetleaf plant response rating (velvetleaf; [6]) | Velvetleaf plant response rating (velvetleaf; [7]) | Velvetleaf plant response rating (velvetleaf; [8]) | Wild oats plant response rating (wild oat; [1]) | Wild oats plant response rating (wild oat; [2]) | Plant response rating, Wild oats (wild oat; [4]) | Plant response rating, Wild oats (wild oat; [5]) | Wild oats plant response rating (wild oat; [6]) | Wild oats plant response rating (wild oat; [7]) | Wild oats plant response rating (wild oat; [8]) | Nutsedge plant response rating (purple nutsedge; [1]) | Nutsedge plant response rating (purple nutsedge; [2]) | Plant response rating, Nutsedge (purple nutsedge; [3]) | Plant response rating, Nutsedge (purple nutsedge; [4]) | Plant response rating, Nutsedge (purple nutsedge; [5]) | Nutsedge plant response rating (purple nutsedge; [6]) | Nutsedge plant response rating (purple nutsedge; [7]) | Nutsedge plant response rating (purple nutsedge; [8]) | Rice plant response rating (rice; [1]) | Rice plant response rating (rice; [9]) | Rice plant response rating (rice; [10]) | Rice plant response rating (rice; [11]) | S. Flatsedge plant response rating (smallflower flatsedge; [1]) | S. Flatsedge plant response rating (smallflower flatsedge; [9]) | S. Flatsedge plant response rating (smallflower flatsedge; [10]) | S. Flatsedge plant response rating (smallflower flatsedge; [11]) | Barnyardgrass plant response rating (bamyardgrass; [1]) | Barnyardgrass plant response rating (bamyardgrass; [9]) | Barnyardgrass plant response rating (bamyardgrass; [10]) | Barnyardgrass plant response rating (bamyardgrass; [11])
